Measured values from patent publication US9938262B2, “Benzamides” (Merck Patent GmbH, priority 2011, dated 2018).

Molecular target: T1, FSHR (Homo sapiens, UniProt P23945)
T1 construct: expressed in transfected cells; host or cells: CHO (Cho-FSHR-LUC-1-1-43)
Assay: EC50 of cyclic AMP production in CHO FSHR cells + EC20 FSH (Assay A)
Assay type: cell-based
Conditions: Table 1; for activation at 5 µM: 1 h, effect relative to maximum response of the FSH standard; for EC50: CHO FSHR cells + EC20 FSH, read-out: Assay A EC50 of cyclic AMP production
Protocol: Example 10: EC50 of Cyclic AMP Production in CHO FSHR Cells+EC20 FSH (Assay A)
2500 Cho-FSHR-LUC-1-1-43 cells were plated per well in 5 μl of phenol red free DMEM/F12+1% FBS. Cells were plated in 384 well, solid white low volume plates (Greiner 784075) by Multidrop. Cells were assayed by adding 100 μl of 2×EC20 FSH/IBMX in DMEM/F12+0.1% BSA) by Multidrop to 2 μl of test compound stamped in 384 well plates (compounds are diluted 1:50). The final FSH concentration was […], and the final IBMX concentration was 200 μM. The compound plate map was as follows: Column 1: 2 μl of DMSO; Column 2: 2 μl of DMSO; Columns 3-12 and 13-24: 2 μl of test compound, diluted 1:4 in 100% DMSO, or 2 μl of FSH, diluted 1:4 in DMEM/F12+0.1% BSA. The starting concentration for FSH was 50 nM (final concentration was 0.5 nM). […] 5 μl of compound+EC20 FSH mixture were transferred to cell plates (1:2 dilution into 5 μl of cell media) The plates were incubated at 37° C. for 1 h. 10 μl of mixed HTRF (CisBio #62AM4PEC) reagents were added per well and incubated at room temperature for 1 h. The plates were read on Envision using the cAMP HTRF—low volume 384 well protocol. The readout was the calculated fluorescence ratio (665 nm/620 nm). Values given in percent (%) indicate the percental effect (response) at a certain concentration of agonist relative to the maximum response of the FSH standard.

T1 sequence (P23945 18-695): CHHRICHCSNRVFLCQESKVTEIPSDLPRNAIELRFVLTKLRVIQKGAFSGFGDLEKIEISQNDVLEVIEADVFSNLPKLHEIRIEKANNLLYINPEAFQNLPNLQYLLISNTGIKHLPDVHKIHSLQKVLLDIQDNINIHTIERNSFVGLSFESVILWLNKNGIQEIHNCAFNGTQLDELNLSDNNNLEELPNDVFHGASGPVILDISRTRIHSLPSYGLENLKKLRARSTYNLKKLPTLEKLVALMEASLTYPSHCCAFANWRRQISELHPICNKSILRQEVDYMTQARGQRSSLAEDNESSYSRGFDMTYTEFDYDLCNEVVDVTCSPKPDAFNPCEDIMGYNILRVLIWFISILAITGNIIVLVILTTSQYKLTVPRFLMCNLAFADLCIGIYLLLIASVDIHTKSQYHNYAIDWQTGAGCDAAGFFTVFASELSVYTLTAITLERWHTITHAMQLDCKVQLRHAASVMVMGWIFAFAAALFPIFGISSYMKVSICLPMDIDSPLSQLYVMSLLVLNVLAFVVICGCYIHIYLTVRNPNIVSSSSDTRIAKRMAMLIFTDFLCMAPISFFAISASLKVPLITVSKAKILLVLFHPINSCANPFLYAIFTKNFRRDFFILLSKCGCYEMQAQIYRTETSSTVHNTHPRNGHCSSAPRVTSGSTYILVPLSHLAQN
T1 sequence (P01215 25-116 partner): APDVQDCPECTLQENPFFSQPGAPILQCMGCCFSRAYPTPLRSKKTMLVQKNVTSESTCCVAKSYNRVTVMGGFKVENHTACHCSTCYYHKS
T1 sequence (P01225 19-129 partner): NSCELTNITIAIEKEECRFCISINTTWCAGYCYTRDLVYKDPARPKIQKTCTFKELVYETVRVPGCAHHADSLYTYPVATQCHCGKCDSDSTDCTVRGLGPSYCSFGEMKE

activation at 5 µM [%] | EC50 [nM] | SMILES
11 | – | CCc1onc(C)c1C(=O)Nc1cc(C(=O)NCCCN2CCCC2=O)ccc1N1CCN(c2ccccc2C)CC1 [Compound 81]
– | 1000 to 10000 | Cc1ccccc1N1CCN(c2ccc(C(=O)NCCCN3CCCC3=O)cc2NC(=O)C2CCCCC2)CC1 [Compound 82]
8 | – | Cc1ccccc1N1CCN(c2ccc(C(=O)NCCCN3CCCC3=O)cc2NC(=O)C2CCN(C)CC2)CC1 [Compound 83]
47 | – | Cc1ccccc1N1CCN(c2ccc(C(=O)NCCCN3CCCC3=O)cc2NC(=O)c2cccc(N(C)C)c2)CC1 [Compound 86]
– | 1000 to 10000 | Cc1ccccc1N1CCN(c2ccc(C(=O)NCCCN3CCCC3=O)cc2NC(=O)c2ccccc2C(F)(F)F)CC1 [Compound 87]
34 | – | Cc1ccccc1N1CCN(c2ccc(C(=O)NCCCN3CCCC3=O)cc2NC(=O)c2cccc3ccccc23)CC1 [Compound 88]
– | 100 to 1000 | Cc1ccccc1N1CCN(c2ccc(C(=O)NCCCc3ccccc3)cc2NC(=O)c2ccco2)CC1 [Compound 89]
– | 100 to 1000 | Cc1ccccc1N1CCN(c2ccc(C(=O)NCCCn3cccn3)cc2NC(=O)c2ccco2)CC1 [Compound 90]
– | 1000 to 10000 | Cc1ccccc1N1CCN(c2ccc(C(=O)N[C@@H](C)C(=O)NC3CCCC3)cc2NC(=O)c2ccco2)CC1 [Compound 91]
– | 1000 to 10000 | Cc1ccccc1N1CCN(c2ccc(C(=O)NCCCN3CCCC3=O)cc2NC(=O)C2CCCO2)CC1 (centres unmarked) [Compound 92]
– | 100 to 1000 | COc1cccc(CNC(=O)c2ccc(N3CCN(c4ccccc4C)CC3)c(NC(=O)c3ccco3)c2)c1 [Compound 93, Furan-2-carboxylic acid [5-(3-methoxy-benzylcarbamoyl)-2-(4-o-tolyl-piperazin-1-yl)-phenyl]-amide]
48 | – | Cc1ccccc1N1CCN(c2ccc(C(=O)NCc3ccc(C(F)(F)F)cc3)cc2NC(=O)c2ccco2)CC1 [Compound 94, Furan-2-carboxylic acid [2-(4-o-tolyl-piperazin-1-yl)-5-(4-trifluoromethyl-benzylcarbamoyl)-phenyl]-amide]
– | 100 to 1000 | COc1cc(CNC(=O)c2ccc(N3CCN(c4ccccc4C)CC3)c(NC(=O)c3ccco3)c2)cc(OC)c1 [Compound 95, Furan-2-carboxylic acid [5-(3,5-dimethoxy-benzylcarbamoyl)-2-(4-o-tolyl-piperazin-1-yl)-phenyl]-amide]
– | > 10000 | Cc1ccccc1N1CCN(c2ccc(C(=O)NCc3cccc4ccccc34)cc2NC(=O)c2ccco2)CC1 [Compound 96, Furan-2-carboxylic acid [5-[(naphthalen-1-ylmethyl)-carbamoyl]-2-(4-o-tolyl-piperazin-1-yl)-phenyl]-amide]
– | 1000 to 10000 | Cc1ccccc1N1CCN(c2ccc(C(=O)NCCCN3CCCC3=O)cc2NC(=O)c2ccno2)CC1 [Compound 98]
35 | – | Cc1ccccc1N1CCN(c2ccc(C(=O)NCCCN3CCCC3=O)cc2NC(=O)c2cncs2)CC1 [Compound 99]
12 | – | CCNc1nc(C)c(C(=O)Nc2cc(C(=O)NCCCN3CCCC3=O)ccc2N2CCN(c3ccccc3C)CC2)s1 [Compound 100]
– | 1000 to 10000 | Cc1ccccc1N1CCN(c2ccc(C(=O)NCCCN3CCCC3=O)cc2NC(=O)c2csc(Br)n2)CC1 [Compound 101]
– | 1000 to 10000 | Cc1nc(C(=O)Nc2cc(C(=O)NCCCN3CCCC3=O)ccc2N2CCN(c3ccccc3C)CC2)c(C)o1 [Compound 102]
– | 1000 to 10000 | Cc1ccccc1N1CCN(c2ccc(C(=O)NCCCN3CCCC3=O)cc2NC(=O)c2cocn2)CC1 [Compound 103]
33 | – | Cc1ccccc1N1CCN(c2ccc(C(=O)NCCCN3CCCC3=O)cc2NC(=O)c2c(C)noc2C)CC1 [Compound 106]

activation at 5 µM [%] | EC50 [nM] | SMILES
15 | – | Cc1ccccc1N1CCN(c2ccc(C(=O)NCCCN3CCCC3=O)cc2NC(=O)c2cnoc2C)CC1 [Compound 107]
10 | – | Cc1ccccc1N1CCN(c2ccc(C(=O)NCCCN3CCCC3=O)cc2NC(=O)c2cnoc2C2CC2)CC1 [Compound 109]
– | 1000 to 10000 | Cc1ccccc1N1CCN(c2ccc(C(=O)NCCCN3CCCC3=O)cc2NC(=O)c2csnn2)CC1 [Compound 110]
– | 1000 to 10000 | Cc1ccccc1C(=O)Nc1cc(C(=O)NCCCN2CCCC2=O)ccc1N1CCN(c2ccccc2C)CC1 [Compound 111]
21 | – | Cc1ccccc1N1CCN(c2ccc(C(=O)NCCCN3CCCC3=O)cc2NC(=O)c2cccc3c2CCCC3)CC1 [Compound 112]
40 | – | Cc1ccccc1N1CCN(c2ccc(C(=O)NCCCN3CCCC3=O)cc2NC(=O)c2ccc3ccn(C)c3c2)CC1 [Compound 114]
39 | – | Cc1ccccc1N1CCN(c2ccc(C(=O)NCCCN3CCCC3=O)cc2NC(=O)c2cccc3nccnc23)CC1 [Compound 115]
– | 100 to 1000 | Cc1ccccc1N1CCN(c2ccc(C(=O)NCCCn3ccnc3)cc2NC(=O)c2ccco2)CC1 [Compound 116]
– | 1000 to 10000 | Cc1ccccc1N1CCN(c2ccc(C(=O)NCCCN3CCCC3)cc2NC(=O)c2ccco2)CC1 [Compound 117]
– | 100 to 1000 | Cc1ccccc1N1CCN(c2ccc(C(=O)NCCCn3ccnc3C)cc2NC(=O)c2ccco2)CC1 [Compound 118]
– | 100 to 1000 | Cc1ccccc1N1CCN(c2ccc(C(=O)NCCS(=O)(=O)N3CCCC3)cc2NC(=O)c2ccco2)CC1 [Compound 119]
– | 100 to 1000 | Cc1ccccc1N1CCN(c2ccc(C(=O)NCCC(=O)N3CCCC3)cc2NC(=O)c2ccco2)CC1 [Compound 120]
24 | – | COc1ccc(CNC(=O)c2ccc(N3CCN(c4ccccc4C)CC3)c(NC(=O)c3ccco3)c2)cc1 [Compound 122]
82 | – | COc1ccccc1CNC(=O)c1ccc(N2CCN(c3ccccc3C)CC2)c(NC(=O)c2ccco2)c1 [Compound 124, Furan-2-carboxylic acid [5-(2-methoxy-benzylcarbamoyl)-2-(4-o-tolyl-piperazin-1-yl)-phenyl]-amide]
33 | – | O=C(NCCCN1CCCC1=O)c1ccc(N2CCN(c3ccccn3)CC2)c(NC(=O)c2ccco2)c1 [Compound 126]
33 | – | COc1ccc(C(=O)Nc2cc(C(=O)NCCCN3CCCC3=O)ccc2N2CCN(c3ccccc3C)CC2)cc1OC [Compound 127]
– | 100 to 1000 | Cc1ccccc1N1CCN(c2ccc(C(=O)NCCCN3CCCC3=O)cc2NC(=O)c2ccc(Cl)cn2)CC1 [Compound 129]
– | 1000 to 10000 | Cc1ccc(C(=O)Nc2cc(C(=O)NCCCN3CCCC3=O)ccc2N2CCN(c3ccccc3F)CC2)o1 [Compound 130, 5-Methyl-furan-2-carboxylic acid {2-[4-(2-fluoro-phenyl)-piperazin-1-yl]-5-[3-(2-oxo-pyrrolidin-1-yl)-propylcarbamoyl]-phenyl}-amide]
– | 100 to 1000 | Cc1ccccc1N1CCN(c2ccc(C(=O)NCc3ccc(Cl)cc3)cc2NC(=O)c2ccco2)CC1 [Compound 131, Furan-2-carboxylic acid [5-(4-chloro-benzylcarbamoyl)-2-(4-o-tolyl-piperazin-1-yl)-phenyl]-amide]
– | 1000 to 10000 | CNCCNC(=O)c1ccc(N2CCN(c3ccccc3C)CC2)c(NC(=O)c2ccco2)c1 [Compound 132, Furan-2-carboxylic acid [5-(2-methylamino-ethylcarbamoyl)-2-(4-o-tolyl-piperazin-1-yl)-phenyl]-amide]
